US20060286679A1, “Immunochromatographic method” (Mitsubishi Kagaku latron, Inc., priority 2003, published 2006)

Assays:
[1] = test system: Human whole blood; test: Observation on hemolysis after mixing whole blood with equal volume of detergent liquid; format: cell-based; further: key: Hml: Hemolyzed; Not hemolyzed; FCD: Failure in chromatographic development
Experimental: Deionized water, physiological saline (150 mmol/L sodium chloride liquid), and a 10 mmol/L phosphate buffer (pH 7.5, 150 mmol/L sodium chloride) were prepared.
Human whole blood (100 μL) collected using a tube containing heparin anticoagulant was mixed with an equal volume of each detergent liquid (100 μL) to prepare each sample. After 10 minutes from the mixing, hemolysis in each sample was observed visually. The “hemolysis” was judged on the basis of a transparent state caused by a solubilization of erythrocytic membrane and elution of red pigments such as hemoglobin from erythrocytes.
Total concentrations of five detergents in the four mixed liquids were 0.2, 1.0, 5.0, and 20%, respectively.

[2] = test system: mite-specific IgE; test: Enzyme immunochromatographic measurement of specific IgE in hemolyzed whole-blood-derived sample; set-up: species or system human
Experimental: A nitrocellulose membrane (HF180; pore size=5 to 8 μm; Millipore) was cut into a rectangular piece (5 mm×25 mm). An aqueous solution of extracted mite allergen proteins (1 mg/mL) was applied linearly with a width of 1 mm at the position of 15 mm from an end (upstream) of the membrane. In this connection, the aqueous solution was previously prepared by diluting a Dermatophagoides pteronyssinus extract (Glia) with a 5 mmol/L borate buffer (pH 8.5) and dialyzing the diluted solution.
A plastic adhesive sheet (BioDot) was cut into a rectangular piece (5 mm×60 mm). […] In this connection, adjacent pieces attached on the adhesive sheet were overlapped with each other at a width of approximately 1 mm.
Each aliquot (50 μL) of whole-blood-derived samples prepared by hemolysis and solubilization was dispensed into each well of a microplate. […]
As the above samples, sample 1 (mite-specific IgE=0 IU/mL), sample 2 (mite-specific IgE=3 IU/mL), and sample 3 (mite-specific IgE=10 IU/mL) were used. The amounts of mite-specific IgE were measured by a conventional quantitative analysis (AlaSTAT specific IgE antibody measuring kit; obtained from Iatron and manufactured by DPC, US) and shown by IU/mL, an international standard unit.

[3] = Example 1, detergent liquid 1% (final half), visual, 10 min after mixing
[4] = Example 1, detergent liquid 5% (final half), visual, 10 min after mixing
[5] = Example 1, detergent liquid 20% (final half), visual, 10 min after mixing
[6] = Example 2, detergent liquid 1% (final half)
[7] = Example 2, detergent liquid 5% (final half)
[8] = Example 2, detergent liquid 20% (final half)

Compound	Hemolysis ([1]; Example 1, detergent liquid 0.2% (final half), visual, 10 min after mixing)	Hemolysis [1, 3]	Hemolysis [1, 4]	Hemolysis [1, 5]	Hemolysis ([1]; Example 2, detergent liquid 0.2% (final half))	Hemolysis [1, 6]	Hemolysis [1, 7]	Hemolysis [1, 8]	solubilization of whole blood, immunochromatographic staining, and immunochromatographic development [2]
CCCCCCCCCCCCOS(=O)(=O)[O-].[Na+] [sodium dodecyl sulfate]	Hml	Hml	Hml	Hml	Hml	Hml	Hml	Hml	
CCCCCCCCCCCCCCCCCC[N+](C)(C)CC(=O)[O-] [Amphitol 86B, stearyl betaine]		Hml	Hml	Hml		Hml	Hml	Hml	cannot be performed
C[C@H](CCC(=O)NCCC[N+](C)(C)CCCS(=O)(=O)[O-])[C@H]1CC[C@H]2[C@@H]3[C@H](O)C[C@@H]4C[C@H](O)CC[C@]4(C)[C@H]3C[C@H](O)[C@]12C [CHAPS, 3-[(3-cholamido-propyl)dimethyl-ammonio]propanesulfonic acid]		Hml	Hml	Hml		Hml	Hml	Hml	
polyoxyethylene laurylether [Emulgen 108]		Hml	Hml	Hml		Hml	Hml	Hml	
polyethylene glycol mono-para-iso-octylphenyl ester [Triton X-100]		Hml	Hml	Hml		Hml	Hml	Hml	cannot be performed
polyoxyethylene monolaurate [Tween 20]				Hml				Hml	
